Source: paper PMC10283052, “Intranasal delivery of mitochondrial protein humanin rescues cell death and promotes mitochondrial function in Parkinson's disease” (Theranostics, 2023)

Experiments:
[1] = system: SH-SY5Y cells; assay: Real-time qPCR of mitochondrial rRNA and humanin transcripts; format: cell-based, human
Description: For real-time qPCR, total RNA was extracted using TRIzol reagent (Thermo Fisher Scientific). cDNA was synthesized using a cDNA synthesis kit (Bioneer Corporation), according to the manufacturer's protocol. The mRNA levels were analyzed in a LightCycler 96 (Roche, Basel, Switzerland) using SYBR Green I master mix and SensiFAST™ SYBR® No-ROX Kit (Bioline, Paris, France). B2M (beta-2-microglobulin) gene expression was used to normalize gene expression data. The primer sequences used in this experiment are in Table S2.

[2] = system: SH-SY5Y cells; assay: HN-induced intracellular humanin expression, western blot, SH-SY5Y; format: cell-based, human; conditions: HN treatment 24 h, several doses, basal humanin undetectable
Description: The SH-SY5Y human neuroblastoma cell line and PC12 rat pheochromocytoma cell line were purchased from the Korean Cell Line Bank (Seoul, South Korea). Undifferentiated SH-SY5Y cells were grown in Dulbecco's modified Eagle's medium nutrient mixture F-12 (DMEM/F12; Thermo Fisher Scientific) supplemented with 10% FBS and 1% P/S. Undifferentiated PC12 cells were grown in DMEM (Thermo Fisher Scientific) supplemented with 5% FBS, 5% horse serum, and 1% P/S on poly-D-lysine (PDL, Sigma-Aldrich) plates.
(§1) For HN treatment of cells, HN stock solution was first incubated at 37 ℃ with mild stirring for 0.5 h. The solution was then added to the culture medium to achieve a desirable final concentration as described above.
(§2) Mouse brain tissue samples and cells were homogenized in radioimmunoprecipitation assay (RIPA) buffer (Cell Signaling, Danvers, MA, USA) in the presence of a protease and phosphatase inhibitor cocktail (Thermo Fisher Scientific). The samples were sonicated on ice, and the supernatant was collected after centrifugation at 4°C at 10,000 g for 5 min. The protein samples were loaded and separated using Tris-glycine SDS-PAGE. To detect the HN peptide, the proteins were separated into three layers of tricine SDS-PAGE, as previously described. […] The results were analyzed using the ImageJ densitometry system. […]

[3] = system: mtDNA-depleted (Rho^0) SH-SY5Y cells; assay: Humanin induction in mtDNA-depleted Rho0 cells (PCR, western blot); format: cell-based, human; conditions: Rho0 cells devoid of mtDNA; HN 20 μM, 24 h; conventional PCR and western blot
Description: For generating SH-SY5Y Rho^0 cells depleted of mitochondrial DNA, we treated the cells with ethidium bromide (0.5 μg/ml) (Sigma-Aldrich) for 2 months as described previously. SH-SY5Y Rho^0 cells were grown in the same culture medium but supplemented with an additional 50 μg/ml of uridine and 100 μg/ml of pyruvate to support cell growth.
as §2, with “described. The separated proteins were transferred to nitrocellulose membranes (GenDEPOT, Barker, TX, USA). The membranes were blocked for 0.5 h, followed by incubation with appropriate primary antibodies overnight at 4°C.” for “described.”
The loss of mtDNA in SH-SY5Y Rho^0 cells was determined by standard PCR with three pairs of primers (Table S1), two specifically for mtDNA (mt-ND4, humanin) and one specifically for nuclear DNA (ATP5PB). […]

[4] = system: midbrain dopaminergic neurons from embryonic mouse; assay: HN-induced intracellular humanin expression, western blot, primary neurons; format: cell-based; conditions: HN treatment 24 h (1 μM in Fig 2A), basal humanin undetectable
Description: (§3) Primary mesencephalic cell cultures were prepared using gestational day 13.5 embryos from C57BL/6J mice, as previously described. The mesencephalon was dissected from the embryos and dissociated in a medium containing 0.25% trypsin-EDTA and 0.05% DNase in PBS for 15 min at 37 °C. Tissue samples were mechanically dissociated by gentle pipetting using Pasteur pipettes. After centrifugation at 400 x g for 5 min, the cells were plated in Neurobasal-A medium (Thermo Fisher Scientific, Waltham, MA, USA) supplemented with 2% B27 supplement (Thermo Fisher Scientific), 1× Glutamax (Thermo Fisher Scientific), 5% fetal bovine serum (FBS), 0.36% D-glucose, and 1% Penicillin/Streptomycin (P/S) in poly-L-ornithine/laminin (Sigma-Aldrich)-coated plates. On day 4 in vitro (DIV), the plating medium was replaced, and the neurons were used on DIV 8 for subsequent experiments.
as §1
Mouse brain tissue samples and cells were homogenized in radioimmunoprecipitation assay (RIPA) buffer (Cell Signaling, Danvers, MA, USA) in the presence of a protease and phosphatase inhibitor cocktail (Thermo Fisher Scientific). […] The results were analyzed using the ImageJ densitometry system. […]

[5] = system: Murine primary dopaminergic neurons; assay: MPP+ toxicity in primary dopaminergic neurons (MTT, neurite analysis); format: cell-based, mouse
Description: as §3
Following treatment with the aforementioned reagents, the cells were washed and treated with 3-(4,5-dimethylthiazol-2-yl)-2,5-diphenyl-tetrazolium bromide (MTT, Thermo Fisher Scientific). Briefly, the cells were seeded in a 96-well plate at a density of 5 × 10^3 cells/well. After 24 h, a neurotoxin 1-methyl-4-phenylpyridinium (MPP^+) (Sigma-Aldrich) was applied to induce toxicity in neuronal cells. Next, the cells were incubated with MTT for 4 h, and formazan crystals were solubilized using DMSO. Absorbance was measured using a multi-plate reader at a wavelength of 570 nm, and the viability of the cells was recorded as a percentage of the control.

[6] = HN pre-treatment 12 h, then MPP+ 100 μM 24 h, dose-dependent

humanin (MAPRGFSCLLLLTSEIDLPVKRRA; Humanin; UniProt Q8IVG9 1-24, looked up) [HN, mitochondria-derived peptide encoded by the mitochondrial genome, synthesized by Fmoc-based SPPS at GL Biochem]
transcript levels of regions across mitochondrial rRNA and humanin ([1]; up to 24 h after HN treatment, slightly declined over time): significantly upregulated up to 24 h
transcript levels of regions across mitochondrial rRNA and humanin ([1]; within 3 h of HN treatment): significant upregulation
intracellular humanin expression [2]: induced its intracellular expression in a dose-dependent manner
induction of intracellular humanin by HN peptide [3]: abolished
intracellular humanin expression [4]: induced its intracellular expression in a dose-dependent manner
neurite number ([5]; HN 1 μM versus DMSO): increased neurite number
neurite loss induced by MPP+ [5, 6]: rescued the neurite loss and neuronal death
neuronal death induced by MPP+ (viability, MTT) [5, 6]: rescued the neurite loss and neuronal death
average length of all sprouting neurites per neuron ([5]; HN-treated versus DMSO-treated neurons, slightly higher): not statistically significant
